Measurements from PubChem BioAssay (NCI).
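How tested: cells in 96-well plates exposed to compound for 48 hours at five concentrations. At the GI50, growth is halved. The concentration for full growth arrest is given as TGI.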

How the values were obtained:
Experiment in all cases: growth of human tumour cells (NCI), 48 h
SNB-19 CNS = tested on: SNB-19 CNS
SNB-75 CNS = tested on: SNB-75 CNS
SF-539 CNS = tested on: SF-539 CNS
DU-145 prostate = tested on: DU-145 prostate
NCI-H226 lung = tested on: NCI-H226 lung
SN12C renal = tested on: SN12C renal
SF-268 CNS = tested on: SF-268 CNS
UO-31 renal = tested on: UO-31 renal
MOLT-4 leukemia = tested on: MOLT-4 leukemia

Row | Structure (SMILES) | GI50 (SNB-19 CNS) [µM] | TGI (SNB-19 CNS) [µM] | GI50 (SNB-75 CNS) [µM] | TGI (SNB-75 CNS) [µM] | GI50 (SF-539 CNS) [µM] | TGI (SF-539 CNS) [µM] | GI50 (DU-145 prostate) [µM] | TGI (DU-145 prostate) [µM] | TGI (NCI-H226 lung) [µM] | TGI (SN12C renal) [µM] | TGI (SF-268 CNS) [µM] | TGI (UO-31 renal) [µM] | TGI (MOLT-4 leukemia) [µM] | GI50 (NCI-H226 lung) [µM] | GI50 (SN12C renal) [µM] | GI50 (SF-268 CNS) [µM] | GI50 (UO-31 renal) [µM] | GI50 (MOLT-4 leukemia) [µM]
1 | Cl.Fc1c[c-]c(-c2ccccn2)c(F)c1.[Pt].c1ccc([PH+](C[PH+](c2ccccc2)c2ccccc2)c2ccccc2)cc1 | 0.343 | 1.32 | 0.183 | 0.781 | 0.244 | 0.677 | 0.355 | 1.33 | – | – | – | – | – | – | – | – | – | –
2 | O=C(O)c1c(Br)c(Br)c(Br)c(Br)c1C1c2ccc(O)cc2Oc2cc(O)ccc21 | – | > 100 | – | > 100 | – | > 100 | – | > 100 | > 100 | > 100 | > 100 | > 100 | > 100 | – | – | – | – | –
3 | COc1cc2ccnc3c(=C(SC)SC)c(=O)c(c1OC)c23 | – | > 100 | – | 21.8 | – | 33 | – | – | – | 29.9 | 60.3 | 29.3 | 23.8 | – | – | – | – | –
4 | CCC1(CN(C)C)CC/C(=C\c2ccc(OC)c(OC)c2)C1=O (centres undefined) | – | > 100 | – | > 100 | – | > 100 | – | – | > 100 | > 100 | > 100 | > 100 | > 100 | – | – | – | – | –
5 | N#CC1=C(O)NC(O)=C(C#N)C1c1ccc(C2C(C#N)=C(O)NC(O)=C2C#N)cc1 | – | > 100 | – | > 100 | – | > 100 | – | – | > 100 | > 100 | > 100 | > 100 | > 100 | – | – | – | – | –
6 | CC(C)(C)N/N=C(\C(=O)NC1=C(Cl)C(=O)c2ccccc2C1=O)C1C=CCS1(=O)=O (centres undefined) | – | > 100 | – | 24 | – | 54.2 | – | 23.2 | 27.9 | 31.6 | > 100 | 37.7 | > 100 | – | – | – | – | –
7 | NC(=O)CC(N=Cc1nc(-c2ccccc2)oc1O)C(=O)O (centres undefined) | – | > 100 | – | > 100 | – | > 100 | – | – | > 100 | – | > 100 | > 100 | – | – | – | – | – | –
8 | COCCOCCOCCOc1cccc2c1C(=O)c1cccc(OCCOCCOCCOC)c1C2=O | – | > 100 | – | > 100 | – | > 100 | – | – | – | > 100 | – | – | > 100 | – | – | – | – | –
9 | O=[N+]([O-])c1cc([N+](=O)[O-])c(Cl)cc1Cl | 1.95 | 3.66 | 1.51 | 2.92 | 1.73 | 3.49 | 1.56 | 2.9 | 5.78 | 3.55 | 3.13 | 1.48 | 4.4 | 2.22 | 1.76 | 1.64 | 0.34 | 0.918
10 | COc1cc2oc3c(c(=O)c2c(O)c1/C=C/C(C)C)C(C=C(C)C)Oc1cc(O)ccc1-3 (centres undefined) | – | 30.6 | – | 29.4 | – | 31.8 | – | 30.2 | 32.7 | 30.4 | 36.8 | 25.2 | 25.8 | – | – | – | – | –
11 | COc1ccc(NC(=O)CC(=O)n2nc(C)c(N=Nc3ccccc3C(=O)O)c2C)cc1 | – | > 100 | – | 78.8 | – | > 100 | – | – | – | > 100 | > 100 | > 100 | > 100 | – | – | – | – | –
12 | CCCCOC1OC(COC(=O)C(C)C)C(OC(=O)C(C)C)C(O)C1OC1OC(C)C(OC(=O)CCC)C(OC(=O)C(C)C)C1O (centres undefined) | 16.5 | 31.3 | 17.6 | 31.4 | 20.5 | 34.8 | 16.3 | 29.8 | 22.2 | – | 29 | 32.2 | 4.12 | 9.64 | – | 12.2 | 16.8 | 1.71
13 | Cc1ccc(S(=O)(=O)N/N=C/C(C)C)cc1 | – | > 100 | – | > 100 | – | > 100 | – | – | – | > 100 | > 100 | > 100 | > 100 | – | – | – | – | –
14 | CCCCNc1ccc(Nc2ccccc2)cc1 | 5.19 | > 100 | 8.46 | 61.9 | 11.8 | 57.3 | 7.87 | > 100 | > 100 | > 100 | > 100 | 43.1 | 25.9 | 12.5 | 6.28 | 13.3 | 14.4 | 3.23
15 | O=Cc1ccc(-c2ccc(-c3nc4ccccc4s3)cc2)s1 | > 100 | > 100 | > 100 | > 100 | 30.7 | > 100 | 73 | > 100 | > 100 | – | > 100 | > 100 | > 100 | 66.1 | – | 71.7 | 42.7 | 51.5
16 | C=Cn1c([N+](=O)[O-])cnc1/C=C/c1ccc(C(=O)OCCN2CCOCC2)cc1 | – | > 100 | – | > 100 | – | > 100 | – | > 100 | > 100 | > 100 | > 100 | – | > 100 | – | – | – | – | –
